molecular target: T1, human GPR119 (Homo sapiens, UniProt Q8TDV5); assay: AlphaScreen cAMP assay in Min-6/hGPR119 cells (activation of GPR119, intracellular cAMP); format: cell-based; details: MIN6 cells stably transfected with human GPR119; cAMP by AlphaScreen after 45 minutes incubation at room temperature
T1 construct: expression vector for human GPR119 cDNA (Acc. No. NP_848566); expressed in transfected cells
T1 sequence (Q8TDV5 1-335): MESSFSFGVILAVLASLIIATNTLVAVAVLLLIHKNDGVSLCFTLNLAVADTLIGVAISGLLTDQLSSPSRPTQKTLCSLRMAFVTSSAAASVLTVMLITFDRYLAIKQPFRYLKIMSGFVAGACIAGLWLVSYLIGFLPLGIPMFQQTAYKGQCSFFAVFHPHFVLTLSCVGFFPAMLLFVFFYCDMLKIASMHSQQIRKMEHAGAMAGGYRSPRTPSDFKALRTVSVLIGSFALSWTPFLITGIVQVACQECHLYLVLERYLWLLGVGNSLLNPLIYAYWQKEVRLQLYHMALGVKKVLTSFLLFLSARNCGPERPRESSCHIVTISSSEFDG
Description: The compounds of formula I according to the invention modulate the activity of the G-protein-coupled receptor GPR119. The effect of the compounds on the activation of GPR119 and on the stimulation of intracellular cAMP concentration is determined using the AlphaScreen cAMP Assay Kit (Cat.No.#6760625R) made by PerkinElmer.
MIN6 cells [Miyazaki J et al. Endocrinology. 1990 July; 127(1):126-32] are stably transfected with an expression vector for human GPR119 cDNA (Acc. No. NP_848566). Min-6/hGPR119 cells are cultured in DMEM, 10% FBS, 50 μM β-mercaptoethanol, 0.3 mg/mL Geniticin, 2 mM GlutaMAX at 37° C. 5% CO2. For the assay, the cells are seeded in Optiplates (white, 384-well, 160W— barcoded, TC, sterile with lid, Cat.No.#6007688 (Perkin Elmer); 10000 cells/well; 50 μl). The plates covered with lids are then incubated for 24 hours at 37° C./5% CO2. After the medium is aspirated from the wells completely, 10 μl of the test compound are added, the compounds are diluted using stimulating buffer (140 mM NaCl, 3.6 mM KCl, 0.5 mM NaH2PO4, 0.5 mM MgSO4, 1.5 mM CaCl2, 10 mM Hepes, 5 mM NaHCO3; pH 7.4. 0.5 mM IBMX and 0.1% BSA, the final DMSO concentration is 1%). After 45 minutes incubation at room temperature (approx. 20° C.), the cAMP concentrations are determined using the AlphaScreen cAMP Assay Kit (Cat.No.#6760625R from PerkinElmer).

Row | SMILES | EC50 [nM]
1 | CC(C)OC(=O)N1CCC(C2Cc3cc(-c4ccc(S(C)(=O)=O)cc4)ccc3O2)CC1 (centres unmarked) [Example 1, 4-[5-(4-Methanesulfonyl-phenyl)-2,3-dihydro-benzofuran-2-yl]-piperidine-1-carboxylic acid isopropyl ester] | 32
2 | CC(C)OC(=O)N1CCC(C2Cc3cc(-c4ccc(S(C)(=O)=O)nc4)ccc3O2)CC1 (centres unmarked) [Example 2, 4-[5-(6-Methanesulfonyl-pyridin-3-yl)-2,3-dihydro-benzofuran-2-yl]-piperidine-1-carboxylic acid isopropyl ester] | 71
3 | CC(C)OC(=O)N1CCC(C2Cc3cc(-c4ccc(S(C)(=O)=O)cn4)ccc3O2)CC1 (centres unmarked) [Example 3, 4-[5-(5-Methanesulfonyl-pyridin-2-yl)-2,3-dihydro-benzofuran-2-yl]-piperidine-1-carboxylic acid isopropyl ester] | 39
4 | CC(C)OC(=O)N1CCC(C2Cc3cc(-c4ccc(C#N)cc4)ccc3O2)CC1 (centres unmarked) [Example 4, 4-[5-(4-Cyano-phenyl)-2,3-dihydro-benzofuran-2-yl]-piperidine-1-carboxylic acid isopropyl ester] | 198
5 | CS(=O)(=O)c1ccc(-c2ccc3c(c2)CC(C2CCN(C(=O)OC4CCC4)CC2)O3)cc1 (centres unmarked) [Example 5, 4-[5-(4-Methanesulfonyl-phenyl)-2,3-dihydro-benzofuran-2-yl]-piperidine-1-carboxylic acid cyclobutyl ester] | 18
6 | Cc1cc(C#N)cnc1-c1ccc2c(c1)CC(C1CCN(C(=O)OC(C)C)CC1)O2 (centres unmarked) [Example 8, 4-[5-(5-Cyano-3-methyl-pyridin-2-yl)-2,3-dihydro-benzofuran-2-yl]-piperidine-1-carboxylic acid isopropyl ester] | 228

Further lines, results first:

Row | EC50 [nM] | SMILES
7 | 14 | CC(C)(C)OC(=O)N1CCC(C2Cc3cc(-c4ccc(CS(C)(=O)=O)cc4F)ncc3O2)CC1 (single isomer, unassigned) [Example 75]
8 | 55 | CC(C)(C)OC(=O)N1CCC(C2Cc3cc(-c4ccc(CS(C)(=O)=O)cc4F)ncc3O2)CC1 (single isomer, unassigned) [Example 76]
9 | 432 | Cc1cc(-c2ccc3c(c2)CC(C2CCN(C(=O)OC(C)C)CC2)O3)cnc1C#N (centres unmarked) [Example 9, 4-[5-(6-Cyano-5-methyl-pyridin-3-yl)-2,3-dihydro-benzofuran-2-yl]-piperidine-1-carboxylic acid isopropyl ester]
10 | 121 | Cc1cc(S(C)(=O)=O)ccc1-c1ccc2c(c1)CC(C1CCN(C(=O)OC(C)C)CC1)O2 (centres unmarked) [Example 10, 4-[5-(4-Methanesulfonyl-2-methyl-phenyl)-2,3-dihydro-benzofuran-2-yl]-piperidine-1-carboxylic acid isopropyl ester]
11 | 299 | Cc1cc([S+](C)[O-])ccc1-c1ccc2c(c1)CC(C1CCN(C(=O)OC(C)C)CC1)O2 (centres unmarked) [Example 11, 4-[5-(4-Methanesulfinyl-2-methyl-phenyl)-2,3-dihydro-benzofuran-2-yl]-piperidine-1-carboxylic acid isopropyl ester]
12 | 253 | CC(C)(C)OC(=O)N1CCC(C2Cc3nc(-c4ccc(S(C)(=O)=O)cc4)cnc3O2)CC1 (centres unmarked) [Example 12, 4-[2-(4-Methanesulfonyl-phenyl)-6,7-dihydro-furo[2,3-b]byrazin-6-yl]-piperidine-1-carboxylic acid tert-butyl ester]
13 | 214 | CC(C)(C)OC(=O)N1CCC(C2Cc3nc(-c4ccc(S(C)(=O)=O)cc4)ccc3O2)CC1 (centres unmarked) [Example 13, 4-[5-(4-Methanesulfonyl-phenyl)-2,3-dihydro-furo[3,2-b]pyridin-2-yl]-piperidine-1-carboxylic acid tert-butyl ester]
14 | 13 | CC(C)(C)OC(=O)N1CCC(C2Cc3cc(-c4ccc(S(C)(=O)=O)cn4)ccc3O2)CC1 (centres unmarked) [Example 14, 4-[5-(5-Methanesulfonyl-pyridin-2-yl)-2,3-dihydro-benzofuran-2-yl]-piperidine-1-carboxylic acid tert-butyl ester]
